Consider 14 molecules from patent US8609836B2, “4-aryl-2-anilino-pyrimidines” (Janssen Pharmaceutica NV, priority 2008, dated 2013).

The target in one test is CDK1/CyclinB (h) (Homo sapiens, UniProt P06493). Kind of test: CDK1/CyclinB human kinase inhibition, Invitrogen's FRET assay (Z'lyte). Particulars: read-out: CDK1 pIC50 (converted). Type of test: biochemical. The gist of the method: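 Z'lyte FRET assay: human CDK1/CyclinB (0.2 μg/ml) with 2 μM Ser/Thr peptide 12 and 10 μM ATP in 50 mM Hepes pH 7.5, MgCl2, EGTA, Brij-35, 60 min at room temperature. Protease development 60 min, then emission ratio 460/538 nm read with excitation at 390 nm.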
CDK1/CyclinB (h), sequence (P06493 whole entry): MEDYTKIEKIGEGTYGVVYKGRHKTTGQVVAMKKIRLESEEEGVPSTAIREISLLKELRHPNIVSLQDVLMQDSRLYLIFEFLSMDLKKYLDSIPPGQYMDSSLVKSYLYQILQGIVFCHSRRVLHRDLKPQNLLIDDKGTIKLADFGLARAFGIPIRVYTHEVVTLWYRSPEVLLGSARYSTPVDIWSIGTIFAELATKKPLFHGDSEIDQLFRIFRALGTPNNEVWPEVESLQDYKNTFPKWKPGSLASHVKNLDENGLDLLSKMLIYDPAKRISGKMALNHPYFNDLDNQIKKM
CDK1/CyclinB (h), sequence (P14635 whole entry partner): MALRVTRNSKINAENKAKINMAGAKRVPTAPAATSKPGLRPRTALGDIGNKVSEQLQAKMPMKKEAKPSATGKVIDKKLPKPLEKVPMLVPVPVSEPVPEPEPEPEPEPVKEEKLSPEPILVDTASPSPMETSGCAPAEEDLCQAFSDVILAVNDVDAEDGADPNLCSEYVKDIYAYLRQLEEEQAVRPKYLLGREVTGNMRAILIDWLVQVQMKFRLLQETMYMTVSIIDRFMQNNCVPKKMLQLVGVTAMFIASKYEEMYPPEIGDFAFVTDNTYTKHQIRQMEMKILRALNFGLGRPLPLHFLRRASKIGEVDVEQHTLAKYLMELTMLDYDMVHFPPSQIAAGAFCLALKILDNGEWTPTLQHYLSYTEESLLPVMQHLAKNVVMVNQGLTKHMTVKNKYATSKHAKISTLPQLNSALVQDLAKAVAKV

In a further test the test system is H1299. Kind of test: Cellular proliferation assay (Alamar blue), H1299. The format is cell-based. Particulars: Homo sapiens, NCI-H1299; 10% FCS; 72 hours with compound; Alamar blue 4 h. The gist of the method:
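This proliferation assay on NCI-H1299 cells used an initial 24-hour compound-free incubation after seeding, followed by 72 hours of compound treatment with 10% FCS serum at 37° C. and 5% (v/v) CO2. Viable cells were quantified by a 4 h Alamar blue incubation and fluorescent plate reading at 544 nm/590 nm, and effects were expressed relative to control cells.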

The next test deals with HCT-116. Kind of test: Cellular proliferation assay (Alamar blue), HCT-116. Conditions: Homo sapiens, 10% FCS, 72 hours with compound, Alamar blue 4 h. The format is cell-based. The gist of the method:
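Cells were seeded in medium with 10% FCS at 37° C, 5% CO2, left 24 h without compound, then exposed to compounds for 72 h. Viability was read with Alamar blue (resazurin 9 μg/ml, K-ferrocyanide and K-ferricyanide 90 μM each), 6 h for U87-MG, 4 h for HCT-116, 24 h for A2780 and MDA-MB-231.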
In general terms: The colour change of resazurin is a common sign of viable cells or microbes.

In another test the target is AuroraB (h) (Homo sapiens, UniProt Q96GD4). Kind of test: Aurora-B human kinase inhibition, SPA. Particulars: read-out: AuroraB pIC50 (converted). Type of test: biochemical. The gist of the method:
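SPA with biotinylated peptide (3 μM) in 60 mM Hepes pH 7.5, Mg/Mn 3 mM each, 0.5 μM ATP plus [γ-33P]ATP, AuroraB at 0.5 μg/ml. The reaction runs 60 min at room temperature and is stopped with EDTA and streptavidin PVT beads. 33P-substrate is read by scintillation imaging.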

In the next test the target is PLK2 (h) (Homo sapiens, UniProt Q9NYY3). Kind of test: PLK2 human kinase inhibition, SPA. Particulars: read-out: PLK2 pIC50 (converted). Type of test: biochemical. In a few lines:
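SPA read on Leadseeker: PLK2 (30 μg/ml) with 2 μM biotinylated peptide, 0.1 μM ATP plus 2 nM [γ-33P]ATP in 50 mM Hepes pH 8.0, 2 mM MnCl2, 1 mM DTT. Reaction ran 20 min at room temperature, then EDTA stop and streptavidin PVT beads.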

Another test concerns the target CDK4/CyclinD1 (h) (Homo sapiens, UniProt P11802). Kind of test: CDK4/CyclinD1 human kinase inhibition, SPA with GST-pRb substrate. The format is biochemical. Particulars: read-out: CDK4 pIC50 (converted). The gist of the method: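 Human CDK4/CyclinD1 (2.5 μg/ml) was incubated with 40 μg/ml GST-pRb and 2 nM [γ-33P]ATP in 50 mM Hepes pH 7.5, 8 mM NaF, 20 mM MgCl2, 1 mM DTT for 60 min at room temperature. EDTA stop with glutathione SPA beads; phosphorylation read by scintillation counting.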

For the next test, the target named is PLK3 (h) (Homo sapiens, UniProt Q9H4B4). Kind of test: PLK3 human kinase inhibition, SPA. The format is biochemical. Particulars: read-out: PLK3 pIC50 (converted). The gist of the method: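 SPA: PLK3 (h) at 30 μg/ml with 2 μM biotinylated peptide, 0.1 μM ATP plus 2 nM [γ-33P]ATP in 50 mM Hepes pH 8.0, 2 mM MnCl2 and 1 mM DTT. Incubated 20 min at room temperature, then stopped with EDTA and streptavidin PVT beads. Scintillation imaged on Leadseeker.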
PLK3 (h), sequence (Q9H4B4 whole entry): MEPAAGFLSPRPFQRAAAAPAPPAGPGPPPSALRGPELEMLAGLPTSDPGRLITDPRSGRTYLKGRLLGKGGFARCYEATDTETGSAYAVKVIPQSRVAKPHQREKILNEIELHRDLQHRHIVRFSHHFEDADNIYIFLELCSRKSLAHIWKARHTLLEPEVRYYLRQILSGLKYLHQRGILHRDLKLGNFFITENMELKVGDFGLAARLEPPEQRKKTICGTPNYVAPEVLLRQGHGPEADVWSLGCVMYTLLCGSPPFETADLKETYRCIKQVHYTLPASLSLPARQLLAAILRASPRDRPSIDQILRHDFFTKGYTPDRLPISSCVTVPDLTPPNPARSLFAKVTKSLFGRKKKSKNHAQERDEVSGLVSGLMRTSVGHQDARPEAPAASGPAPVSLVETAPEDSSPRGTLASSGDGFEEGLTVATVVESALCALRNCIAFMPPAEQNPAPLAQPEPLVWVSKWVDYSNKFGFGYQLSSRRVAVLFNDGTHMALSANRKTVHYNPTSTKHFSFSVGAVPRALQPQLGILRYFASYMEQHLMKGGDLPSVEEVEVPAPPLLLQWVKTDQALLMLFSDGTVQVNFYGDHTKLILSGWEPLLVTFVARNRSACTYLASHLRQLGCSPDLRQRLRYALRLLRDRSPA

A further test concerns the target GSK3β (h) (Homo sapiens, UniProt P49841). Kind of test: GSK-3β human kinase inhibition, SPA. Type of test: biochemical. Conditions: read-out: GSK3b pIC50 (converted). The gist of the method:
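Scintillation proximity assay: GSK3β (1 μg/ml) with 1 μM biotinylated peptide, 1 μM ATP plus [γ-33P]ATP in Tris pH 7.4, MgCl2, DTT. 60 min at room temperature, stopped with EDTA and streptavidin PVT beads; phosphorylation read by Leadseeker imaging.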

PLK2 (h), sequence (Q9NYY3 whole entry): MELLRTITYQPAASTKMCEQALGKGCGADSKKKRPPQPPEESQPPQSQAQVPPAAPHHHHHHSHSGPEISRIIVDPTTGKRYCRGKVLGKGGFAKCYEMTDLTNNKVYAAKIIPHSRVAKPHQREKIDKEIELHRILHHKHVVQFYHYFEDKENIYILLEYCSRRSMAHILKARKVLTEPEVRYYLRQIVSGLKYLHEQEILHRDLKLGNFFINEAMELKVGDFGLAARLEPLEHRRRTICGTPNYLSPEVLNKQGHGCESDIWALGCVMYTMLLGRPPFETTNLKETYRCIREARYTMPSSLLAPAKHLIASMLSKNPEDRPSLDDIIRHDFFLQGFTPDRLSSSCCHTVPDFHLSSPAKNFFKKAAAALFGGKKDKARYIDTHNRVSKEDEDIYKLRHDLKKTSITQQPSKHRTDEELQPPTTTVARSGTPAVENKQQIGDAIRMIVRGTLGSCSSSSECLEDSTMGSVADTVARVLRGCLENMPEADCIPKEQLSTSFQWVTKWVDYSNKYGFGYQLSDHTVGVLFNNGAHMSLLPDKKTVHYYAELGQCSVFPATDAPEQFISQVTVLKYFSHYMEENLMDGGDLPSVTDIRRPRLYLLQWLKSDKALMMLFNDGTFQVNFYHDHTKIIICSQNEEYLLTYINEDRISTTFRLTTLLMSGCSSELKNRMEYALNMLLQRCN
AuroraB (h), sequence (Q96GD4 whole entry): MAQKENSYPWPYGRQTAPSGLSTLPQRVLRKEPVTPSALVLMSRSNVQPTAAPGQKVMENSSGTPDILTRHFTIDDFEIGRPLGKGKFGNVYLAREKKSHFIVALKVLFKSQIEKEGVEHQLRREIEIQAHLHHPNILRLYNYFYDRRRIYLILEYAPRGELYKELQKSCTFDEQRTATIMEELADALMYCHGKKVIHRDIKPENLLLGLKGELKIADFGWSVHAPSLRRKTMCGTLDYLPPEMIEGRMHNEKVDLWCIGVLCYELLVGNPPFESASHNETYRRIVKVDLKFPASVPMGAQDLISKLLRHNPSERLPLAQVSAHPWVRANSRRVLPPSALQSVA
GSK3β (h), sequence (P49841 whole entry): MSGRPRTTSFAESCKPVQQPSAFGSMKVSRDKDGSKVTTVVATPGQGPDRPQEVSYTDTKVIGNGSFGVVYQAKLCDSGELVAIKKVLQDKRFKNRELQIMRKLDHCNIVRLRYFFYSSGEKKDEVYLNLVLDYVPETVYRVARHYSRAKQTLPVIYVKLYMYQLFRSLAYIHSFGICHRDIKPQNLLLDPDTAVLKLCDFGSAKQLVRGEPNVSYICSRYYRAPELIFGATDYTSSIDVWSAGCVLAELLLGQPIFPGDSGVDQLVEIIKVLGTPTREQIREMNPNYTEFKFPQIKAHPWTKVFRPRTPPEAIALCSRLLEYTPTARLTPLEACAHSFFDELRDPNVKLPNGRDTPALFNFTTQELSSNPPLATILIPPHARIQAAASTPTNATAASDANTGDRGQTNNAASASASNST
CDK4/CyclinD1 (h), sequence (P11802 whole entry): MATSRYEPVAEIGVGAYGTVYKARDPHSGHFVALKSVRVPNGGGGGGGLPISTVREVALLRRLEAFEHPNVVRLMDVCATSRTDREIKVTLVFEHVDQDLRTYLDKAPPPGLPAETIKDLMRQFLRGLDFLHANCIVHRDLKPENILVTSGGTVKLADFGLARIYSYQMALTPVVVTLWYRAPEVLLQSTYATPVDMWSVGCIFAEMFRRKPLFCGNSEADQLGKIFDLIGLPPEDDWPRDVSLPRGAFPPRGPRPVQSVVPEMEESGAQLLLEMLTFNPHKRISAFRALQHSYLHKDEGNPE
CDK4/CyclinD1 (h), sequence (P24385 whole entry partner): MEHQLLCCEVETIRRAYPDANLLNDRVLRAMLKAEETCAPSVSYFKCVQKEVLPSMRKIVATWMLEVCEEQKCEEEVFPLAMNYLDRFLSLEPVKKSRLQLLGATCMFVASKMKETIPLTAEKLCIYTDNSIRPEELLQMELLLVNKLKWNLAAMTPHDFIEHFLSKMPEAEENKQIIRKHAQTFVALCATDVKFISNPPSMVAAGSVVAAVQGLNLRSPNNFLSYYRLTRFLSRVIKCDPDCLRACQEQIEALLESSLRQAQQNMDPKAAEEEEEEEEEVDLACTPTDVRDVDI

Turning to `COc1ccc2cc1CNCCNC(=O)[C@@H]1CCCN1Cc1cc(ccc1N1CCOCC1)Nc1nccc-2n1` [Compound 178], the IC50 on CDK1/CyclinB (h), with H1299, in the test with HCT-116, on AuroraB (h), at PLK2 (h) and at CDK4/CyclinD1 (h) was above 10 µM each time. Moreover, the IC50 at PLK3 (h) and at GSK3β (h) was above 10 µM each time.

As for `O=C1NCc2cccc(c2)-c2ccnc(n2)Nc2cc(CN3CCOCC3)cc(c2)CN2CCC[C@@H]12` [Compound 22], the IC50 on CDK1/CyclinB (h) was 0.251 µM; in the test on H1299, 2.75 µM; in the test with HCT-116, 0.174 µM; on AuroraB (h) it was 10.2 µM; at PLK2 (h) it was above 10 µM; at CDK4/CyclinD1 (h), 2.75 µM. Moreover, the results for the IC50 at PLK3 (h) and on GSK3β (h) were above 10 µM and 0.0309 µM, respectively.

For `CN1CCCNC(=O)C2CCN(CC2)Cc2cc(cc(N3CCOCC3)c2)Nc2nccc(n2)-c2ccc(cc2)C1` [Compound 72], the IC50 at CDK1/CyclinB (h) was above 10 µM; in the test with H1299, above 10 µM; with HCT-116, 3.39 µM; at AuroraB (h), above 10 µM; at PLK2 (h), above 10 µM; on CDK4/CyclinD1 (h), above 10 µM. Besides, the IC50 on PLK3 (h) and at GSK3β (h) was above 10 µM in each case.

Regarding `COc1ccc2cc1CN(C)CCCNC(=O)CN1CCN(CC1)Cc1cccc(c1)Nc1nccc-2n1` [Compound 146], the IC50 on CDK1/CyclinB (h), with H1299, with HCT-116, on AuroraB (h), on PLK2 (h) and at CDK4/CyclinD1 (h) was above 10 µM throughout. Also, the IC50 on PLK3 (h) and at GSK3β (h) was above 10 µM in each case.

Consider `O=C1NCCCc2cc(ccn2)-c2ccnc(n2)Nc2ccc(N3CCOCC3)c(c2)CN2CCCC12` (stereo not shown) [Compound 48], for which the IC50 on CDK1/CyclinB (h), in the test with H1299, with HCT-116, at AuroraB (h), on PLK2 (h) and at CDK4/CyclinD1 (h) was above 10 µM each time. In addition, the IC50 on PLK3 (h) was above 10 µM; at GSK3β (h) it was 9.12 µM.

As to `COc1ccc2cc1CN(C)CCCNC(=O)C1CCN(CC1)Cc1cc(cc(NC(C)C)c1)Nc1nccc-2n1` [Compound 70], the IC50 is above 10 µM at CDK1/CyclinB (h); above 10 µM in the test with H1299; above 10 µM with HCT-116; 6.03 µM at AuroraB (h); above 10 µM on PLK2 (h); above 10 µM on CDK4/CyclinD1 (h). Further, the IC50 at PLK3 (h) and on GSK3β (h) was above 10 µM in each case.

`CN1CCNC(=O)CN2CCN(CC2)Cc2cc(cc(N3CCOCC3)c2)Nc2nccc(n2)-c2ccc(cc2)C1` [Compound 135]: the IC50 at CDK1/CyclinB (h), in the test on H1299, in the test with HCT-116, on AuroraB (h), at PLK2 (h) and on CDK4/CyclinD1 (h) was above 10 µM each time. The figures for the IC50 at PLK3 (h) and at GSK3β (h) were above 10 µM and 4.37 µM, respectively.

As for `CN1CCNC(=O)C2CCN(CC2)Cc2cc(Br)cc(c2)Nc2nccc(n2)-c2ccc(cc2)C1` [Compound 60], the IC50 on CDK1/CyclinB (h) was above 10 µM; in the test on H1299, above 10 µM; in the test with HCT-116 it was 1.58 µM; on AuroraB (h), 6.31 µM; at PLK2 (h), above 10 µM; on CDK4/CyclinD1 (h) it was above 10 µM. Moreover, the results for the IC50 at PLK3 (h) and on GSK3β (h) were above 10 µM and 2.75 µM, respectively.

Regarding `COc1ccc2cc1CN(C)CCNC(=O)C1CCN(CC1)Cc1cc(cc(NC(C)C)c1)Nc1nccc-2n1` [Compound 75], the IC50 on CDK1/CyclinB (h) was above 10 µM; with H1299, above 10 µM; in the test with HCT-116 it was 7.24 µM; at AuroraB (h) it was above 10 µM; at PLK2 (h), above 10 µM; on CDK4/CyclinD1 (h), above 10 µM. For the same molecule, the IC50 on PLK3 (h) and at GSK3β (h) was above 10 µM each time.

Consider `CC(C)Nc1cc2cc(c1)Nc1nccc(n1)-c1ccc(cc1)CN(C)CCNC(=O)C1CCN(CC1)C2` [Compound 61], for which the IC50 was above 10 µM at CDK1/CyclinB (h); above 10 µM in the test on H1299; 7.94 µM in the test on HCT-116; 8.32 µM on AuroraB (h); above 10 µM at PLK2 (h); 7.41 µM on CDK4/CyclinD1 (h). The IC50 on PLK3 (h) was above 10 µM; at GSK3β (h), 7.59 µM.

With `O=C1NCCCOc2cccc(c2)-c2ccnc(n2)Nc2ccc(N3CCOCC3)c(c2)CN[C@H]1Cc1ccccc1` [Compound 91], the IC50 was above 10 µM at CDK1/CyclinB (h); above 10 µM with H1299; 6.17 µM with HCT-116; above 10 µM at AuroraB (h); above 10 µM on PLK2 (h); above 10 µM on CDK4/CyclinD1 (h). The IC50 was above 10 µM on PLK3 (h) and 2.69 µM on GSK3β (h).

Consider `CN(C)CCNCc1cc2cc(c1)Nc1nccc(n1)-c1cccc(c1)CNC(=O)[C@@H]1CCCN1C2` [Compound 31], for which the IC50 on CDK1/CyclinB (h) is 0.933 µM; in the test with H1299 it was 1.78 µM; in the test with HCT-116, 1.02 µM; on AuroraB (h) it was above 10 µM; at PLK2 (h) it was above 10 µM; on CDK4/CyclinD1 (h) it was 1 µM. For the same molecule, the IC50 at PLK3 (h) is above 10 µM; at GSK3β (h) it was 0.11 µM.

For `COc1ccc2cc1CN(C)CCNC(=O)CN1CCN(CC1)Cc1cc(cc(N3CCOCC3)c1)Nc1nccc-2n1` [Compound 145], the IC50 on CDK1/CyclinB (h), in the test with H1299, in the test with HCT-116, at AuroraB (h), on PLK2 (h) and on CDK4/CyclinD1 (h) was above 10 µM throughout. The IC50 on PLK3 (h) and on GSK3β (h) was above 10 µM throughout.

In the case of `CN(C)CCNC(=O)c1ccc2cc1CN1CCC[C@H]1C(=O)NCc1cccc(c1)-c1ccnc(n1)N2` [Compound 42], the IC50 on CDK1/CyclinB (h) is around 1.35 µM; in the test on H1299 it was 3.39 µM; with HCT-116 it was 0.955 µM; at AuroraB (h), above 10 µM; at PLK2 (h), above 10 µM; at CDK4/CyclinD1 (h), 0.457 µM. The IC50 on PLK3 (h) was above 3.02 µM; at GSK3β (h), 0.331 µM.
